Laboratory results reported in patent US11219611B2 (Ocera Therapeutics, Inc., priority 2015, dated 2022).

Legend:
[1] = Phase 1 single-dose crossover study in healthy subjects: plasma PAA and PAGN pharmacokinetics
Protocol: Plasma samples were analyzed for concentrations of phenylacetic acid (PAA), phenylacetylglutamine (PAGN) and ornithine (ORN) using a validated LC-MS/MS method. All urine samples were analyzed for concentrations of PAGN using a validated LC-MS/MS method.
Pharmacokinetics: Plasma concentration vs. time profiles of phenylacetate, ornithine, and phenylacetylglutamine following a single oral dose of each of the study drug were analyzed by noncompartmental PK methods. Pharmacokinetic parameters that were determined include Cmax, tmax, AUC0-t, AUC0-∞, C12 and t1/2.

hepatic encephalopathy = details: cited from earlier work
[2] = Phase 1 study in healthy subjects: urinary excretion of PAGN over 24 hours; format: in vivo, human; details: single oral dose; for Percent PAA Dose Excreted over 24 hours: urine as PAGN
Protocol: Plasma samples were separated by centrifugation within 1 hour of blood collection and stored at approximately −80° C. until analyzed. The total urine volume for each collection interval were measured and recorded and aliquots of urine were stored at approximately −80° C. until analyzed.

ammonia = details: clinical study reported by Jalan et al. 2007; cited from earlier work

Compound	time after dosing at which mean plasma PAGN Cmax occurred ([1]; single oral dose (10 g extended-release formulation or 6 mL RAVICTI))	mean maximum concentration (Cmax) of plasma PAA ([1]; single oral dose (10 g extended-release formulation or 6 mL RAVICTI, each about 5 g PAA equivalent))	incidence of hepatic encephalopathy events (hepatic encephalopathy; clinical studies, 6 mL twice daily)	efficacy for the treatment of hepatic encephalopathy (hepatic encephalopathy; clinical trials (Rockey et al., Hepatology 2014))	PAA converted to PAGN excretion over 24 hours (conversion efficiency) ([2]; Table 2)	Percent PAA Dose Excreted over 24 hours ([2]; mean)	Percent PAA Dose Excreted over 24 hours ([2]; median)	Total PAGN Amount Excreted over 24 hours ([2]; urine, mean)	PAA Equivalents Excreted over 24 hours ([2]; urine, median)	Total PAGN Amount Excreted over 24 hours ([2]; urine, median)	ammonia lowering (ammonia)
O=C(CCCc1ccccc1)OCC(COC(=O)CCCc1ccccc1)OC(=O)CCCc1ccccc1 [RAVICTI®, glycerol phenylbutyrate]	approximately 5 hours	approximately 10 μg/mL	lower the incidence of hepatic encephalopathy events	preliminary efficacy	about 40%	42.7%	42.1%	4.11 G	2.09 G	4.06 G	
L-ornithine phenylacetate											useful in ammonia lowering
